Results: ChEMBL document CHEMBL1126299, “Synthesis and structure-activity relationships of cephalosporins with C-3' catechol-containing residues” (J Med Chem, 1992)
In brackets after ≈: the same amount, converted by molar mass.

What was measured:
Staphylococcus aureus [1] = assay: The compound was tested for minimum inhibitory concentration in Staphylococcus aureus,147N penicillin sensitive Staphylococcus aureus; assay type: functional
Enterobacter cloacae [2] = assay: microbe, parasite or virus in culture
Description: Minimum inhibitory concentration in Enterobacter cloacae, I+401029 inducible type 1 lactamase producer

Enterobacter cloacae [3] = assay: microbe, parasite or virus in culture; remark: listed apart in the source
Description: Minimum inhibitory concentration in Enterobacter cloacae, DR 401108 constitutive depressed type 1 lactamase producer

Pseudomonas aeruginosa [4] = assay: microbe, parasite or virus in culture
Description: Minimum inhibitory concentration in Pseudomonas aeruginosa, 18SH constitutive depressed type 1 lactamase producer

Pseudomonas aeruginosa [5] = assay: microbe, parasite or virus in culture; remark: listed apart in the source
Description: In vitro minimum inhibitory concentration against Pseudomonas aeruginosa (PU21).

Staphylococcus aureus [6] = assay: The compound was tested for minimum inhibitory concentration in Staphylococcus aureus Oxford penicillin sensitive Staphylococcus aureus; assay type: functional
Providencia stuartii [7] = assay: microbe, parasite or virus in culture
Description: Minimum inhibitory concentration in Pseudomonas stuartii, I+442019 inducible type 1 lactamase producer

Escherichia coli [8] = assay: microbe, parasite or virus in culture
Description: In vitro minimum inhibitory concentration against Escherichia coli (DC0 parent organism).

Citrobacter freundii [9] = assay: microbe, parasite or virus in culture
Description: Minimum inhibitory concentration in Citrobacter freundii, DR 382031 constitutive depressed type 1

Enterobacter cloacae [10] = assay: microbe, parasite or virus in culture; remark: listed apart in the source
Description: Minimum inhibitory concentration in Enterobacter cloacae, P99+ constitutive depressed type 1 lactamase producer

Pseudomonas aeruginosa [11] = assay: microbe, parasite or virus in culture; remark: listed apart in the source
Description: Minimum inhibitory concentration in Pseudomonas aeruginosa,799WT parent organism

Escherichia coli [12] = assay: microbe, parasite or virus in culture; remark: listed apart in the source
Description: In vitro minimum inhibitory concentration against Escherichia coli (DC2 permeability mutant).

Pseudomonas aeruginosa [13] = assay: microbe, parasite or virus in culture; remark: listed apart in the source
Description: Minimum inhibitory concentration in Pseudomonas aeruginosa,799/61 permeability mutant

Pseudomonas aeruginosa [14] = assay: microbe, parasite or virus in culture; remark: listed apart in the source
Description: Minimum inhibitory concentration in Pseudomonas aeruginosa, 18S inducible type 1 lactamase producer

Citrobacter freundii [15] = assay: microbe, parasite or virus in culture; remark: listed apart in the source
Description: Minimum inhibitory concentration in Citrobacter freundii, I+382010 inducible type 1 lactamase producer

Providencia stuartii [16] = assay: microbe, parasite or virus in culture; remark: listed apart in the source
Description: Minimum inhibitory concentration in Pseudomonas stuartii, DR 442049 constitutive depressed type 1 lactamase producer

Enterobacter cloacae [17] = assay: microbe, parasite or virus in culture; remark: listed apart in the source
Description: Minimum inhibitory concentration in Enterobacter cloacae, P99- inducible type 1 lactamase producer

Staphylococcus aureus [18] = assay: microbe, parasite or virus in culture
Staphylococcus aureus [19] = assay: microbe, parasite or virus in culture; remark: listed apart in the source
[20] = The half life period in marmosets; assay type: ADME; conditions: callithrix, in vivo
[21] = The compound was evaluated for area under the curve in marmosets; assay type: ADME; conditions: callithrix, in vivo

Description for physchem: The dissociation constant of compound was tested for beta-Lactamase stability

| Structure (SMILES) | MIC (Staphylococcus aureus [1]) [µg/mL] | MIC (Enterobacter cloacae [2]) [µg/mL] | MIC (Enterobacter cloacae [3]) [µg/mL] | MIC (Pseudomonas aeruginosa [4]) [µg/mL] | MIC (Pseudomonas aeruginosa [5]) [µg/mL] | MIC (Staphylococcus aureus [6]) [µg/mL] | MIC (Providencia stuartii [7]) [µg/mL] | MIC (Escherichia coli [8]) [µg/mL] | MIC (Citrobacter freundii [9]) [µg/mL] | MIC (Enterobacter cloacae [10]) [µg/mL] | MIC (Pseudomonas aeruginosa [11]) [µg/mL] | MIC (Escherichia coli [12]) [µg/mL] | MIC (Pseudomonas aeruginosa [13]) [µg/mL] | MIC (Pseudomonas aeruginosa [14]) [µg/mL] | MIC (Citrobacter freundii [15]) [µg/mL] | MIC (Providencia stuartii [16]) [µg/mL] | MIC (Enterobacter cloacae [17]) [µg/mL] | MIC (Staphylococcus aureus [18]) [µg/mL] | MIC (Staphylococcus aureus [19]) [µg/mL] | half-life [20] [h] | further results |
| --- | --- | --- | --- | --- | --- | --- | --- | --- | --- | --- | --- | --- | --- | --- | --- | --- | --- | --- | --- | --- | --- |
| CC(C)(O/N=C(\C(=O)N[C@@H]1C(=O)N2C(C(=O)O)=C(CCc3ccc(O)c(O)c3)CSC12)c1csc(N)n1)C(=O)O (stereo not given in full) | 16 (≈ 27 µM) | 0.5 (≈ 0.845 µM) | 32 (≈ 54.1 µM) | 0.125 (≈ 0.211 µM) | 0.25 (≈ 0.423 µM) | 8 (≈ 13.5 µM) | 2 (≈ 3.38 µM) | 0.125 (≈ 0.211 µM) | 16 (≈ 27 µM) | 32 (≈ 54.1 µM) | 0.06 (≈ 0.101 µM) | 0.03 (≈ 0.0507 µM) | 0.125 (≈ 0.211 µM) | 0.03 (≈ 0.0507 µM) | 0.25 (≈ 0.423 µM) | 8 (≈ 13.5 µM) | 4 (≈ 6.76 µM) | – | – | – | – |
| CC(C)(O/N=C(\C(=O)N[C@@H]1C(=O)N2C(C(=O)O)=C(CCCC(=O)c3cc(O)c(O)c(Cl)c3)CSC12)c1csc(N)n1)C(=O)O (stereo not given in full) | 16 (≈ 23.9 µM) | 0.03 (≈ 0.0449 µM) | > 32 | 0.015 (≈ 0.0225 µM) | 0.015 (≈ 0.0225 µM) | 16 (≈ 23.9 µM) | 0.03 (≈ 0.0449 µM) | 0.008 (≈ 0.012 µM) | 2 (≈ 2.99 µM) | 1 (≈ 1.5 µM) | 0.008 (≈ 0.012 µM) | 0.008 (≈ 0.012 µM) | 0.008 (≈ 0.012 µM) | 0.008 (≈ 0.012 µM) | 0.008 (≈ 0.012 µM) | 1 (≈ 1.5 µM) | 0.03 (≈ 0.0449 µM) | – | – | – | – |
| Nc1nc(/C(=N/OC2(C(=O)O)CCCC2)C(=O)N[C@@H]2C(=O)N3C(C(=O)O)=C(CNC(=O)c4cc(O)c(O)c(Br)c4)CSC23)cs1 (stereo not given in full) | – | 0.03 (≈ 0.0413 µM) | 16 (≈ 22.1 µM) | 0.008 (≈ 0.011 µM) | 0.015 (≈ 0.0207 µM) | – | 0.03 (≈ 0.0413 µM) | 0.008 (≈ 0.011 µM) | 4 (≈ 5.51 µM) | 2 (≈ 2.76 µM) | 0.008 (≈ 0.011 µM) | 0.008 (≈ 0.011 µM) | 0.008 (≈ 0.011 µM) | 0.015 (≈ 0.0207 µM) | 0.008 (≈ 0.011 µM) | 2 (≈ 2.76 µM) | 0.03 (≈ 0.0413 µM) | 32 (≈ 44.1 µM) | 16 (≈ 22.1 µM) | – | – |
| CC(C)(O/N=C(\C(=O)N[C@@H]1C(=O)N2C(C(=O)O)=C(CCNC(=O)CNC(=O)c3cc(O)c(O)c(Br)c3)CSC12)c1csc(N)n1)C(=O)O (stereo not given in full) | 16 (≈ 20.8 µM) | 0.06 (≈ 0.0779 µM) | > 32 | 0.5 (≈ 0.649 µM) | 0.015 (≈ 0.0195 µM) | 8 (≈ 10.4 µM) | 0.125 (≈ 0.162 µM) | 0.015 (≈ 0.0195 µM) | 8 (≈ 10.4 µM) | 8 (≈ 10.4 µM) | 0.008 (≈ 0.0104 µM) | 0.015 (≈ 0.0195 µM) | 0.008 (≈ 0.0104 µM) | 0.008 (≈ 0.0104 µM) | 0.015 (≈ 0.0195 µM) | 4 (≈ 5.19 µM) | 0.06 (≈ 0.0779 µM) | – | – | – | – |
| CCO/N=C(\C(=O)N[C@@H]1C(=O)N2C(C(=O)O)=C(CNC(=O)c3cc(O)c(O)c(Br)c3)CSC12)c1csc(N)n1 (stereo not given in full) | – | 0.03 (≈ 0.0468 µM) | 128 (≈ 200 µM) | 4 (≈ 6.24 µM) | 0.06 (≈ 0.0935 µM) | – | 0.125 (≈ 0.195 µM) | 0.008 (≈ 0.0125 µM) | 16 (≈ 24.9 µM) | 8 (≈ 12.5 µM) | 0.015 (≈ 0.0234 µM) | 0.008 (≈ 0.0125 µM) | 0.008 (≈ 0.0125 µM) | 0.008 (≈ 0.0125 µM) | 0.008 (≈ 0.0125 µM) | 4 (≈ 6.24 µM) | 0.015 (≈ 0.0234 µM) | 4 (≈ 6.24 µM) | 2 (≈ 3.12 µM) | 0.67 | pKa (physchem): 6.9; AUC [21]: 16.97 mg/h/L |
| CC(C)(O/N=C(/C(=O)N[C@@H]1C(=O)N2C(C(=O)O)=C(COC(=O)c3ccc(O)c(O)c3)CSC12)c1csc(N)n1)C(=O)O (stereo not given in full) | – | 0.06 (≈ 0.0965 µM) | > 128 | 0.125 (≈ 0.201 µM) | 0.3 (≈ 0.483 µM) | – | 0.125 (≈ 0.201 µM) | 0.008 (≈ 0.0129 µM) | 8 (≈ 12.9 µM) | 4 (≈ 6.43 µM) | 0.008 (≈ 0.0129 µM) | 0.008 (≈ 0.0129 µM) | 0.008 (≈ 0.0129 µM) | 0.008 (≈ 0.0129 µM) | 0.03 (≈ 0.0483 µM) | 4 (≈ 6.43 µM) | 0.5 (≈ 0.804 µM) | 8 (≈ 12.9 µM) | 4 (≈ 6.43 µM) | – | – |
| CC(C)(O/N=C(\C(=O)N[C@@H]1C(=O)N2C(C(=O)O)=C(CCOC(=O)c3cc(O)c(O)c(Br)c3)CSC12)c1csc(N)n1)C(=O)O (stereo not given in full) | 8 (≈ 11.2 µM) | 0.03 (≈ 0.042 µM) | > 128 | 0.03 (≈ 0.042 µM) | 0.008 (≈ 0.0112 µM) | 8 (≈ 11.2 µM) | 0.03 (≈ 0.042 µM) | 0.008 (≈ 0.0112 µM) | 4 (≈ 5.6 µM) | 2 (≈ 2.8 µM) | 0.008 (≈ 0.0112 µM) | 0.008 (≈ 0.0112 µM) | 0.008 (≈ 0.0112 µM) | 0.008 (≈ 0.0112 µM) | 0.008 (≈ 0.0112 µM) | 2 (≈ 2.8 µM) | 0.03 (≈ 0.042 µM) | – | – | 1.68 | pKa (physchem): 6.5; AUC [21]: 67.7 mg/h/L |
| CCN(CC1=C(C(=O)O)N2C(=O)[C@@H](NC(=O)/C(=N\OC(C)(C)C(=O)O)c3csc(N)n3)C2SC1)C(=O)c1cc(O)c(O)c(Cl)c1 (stereo not given in full) | – | 0.015 (≈ 0.022 µM) | 1 (≈ 1.46 µM) | 0.06 (≈ 0.0878 µM) | – | – | 0.25 (≈ 0.366 µM) | – | 1 (≈ 1.46 µM) | 1 (≈ 1.46 µM) | 0.008 (≈ 0.0117 µM) | – | 0.008 (≈ 0.0117 µM) | 0.008 (≈ 0.0117 µM) | 0.008 (≈ 0.0117 µM) | 8 (≈ 11.7 µM) | 0.125 (≈ 0.183 µM) | – | – | 0.87 | pKa (physchem): 7.4; AUC [21]: 16.4 mg/h/L |
| CC(C)(O/N=C(\C(=O)N[C@@H]1C(=O)N2C(C(=O)O)=C(CNC(=O)c3cc(O)c(O)c(Cl)c3)CSC12)c1csc(N)n1)C(=O)O (stereo not given in full) | – | 0.06 (≈ 0.0916 µM) | 16 (≈ 24.4 µM) | 0.003 (≈ 0.00458 µM) | 0.008 (≈ 0.0122 µM) | – | 0.03 (≈ 0.0458 µM) | 0.008 (≈ 0.0122 µM) | 4 (≈ 6.11 µM) | 4 (≈ 6.11 µM) | 0.008 (≈ 0.0122 µM) | 0.008 (≈ 0.0122 µM) | 0.008 (≈ 0.0122 µM) | 0.008 (≈ 0.0122 µM) | 0.008 (≈ 0.0122 µM) | 2 (≈ 3.05 µM) | 0.06 (≈ 0.0916 µM) | 16 (≈ 24.4 µM) | 16 (≈ 24.4 µM) | 4.57 | pKa (physchem): 7; AUC [21]: 638.3 mg/h/L |
